Experimental data taken from PubChem BioAssay (NCI).
“And” between values parts separate entries of the source, which are not always exact repeats. Identical values can stand only once.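 Five concentrations, 48 hours, 96-well plates. GI50 marks 50% less growth. TGI denotes the concentration required for complete inhibition of growth.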

How the values were obtained:
Assay in all cases: NCI tumour cell line growth inhibition, 48 h
UACC-62 melanoma = test system: UACC-62 melanoma
U251 CNS = test system: U251 CNS
EKVX NSCLC = test system: EKVX NSCLC
786-0 renal = test system: 786-0 renal
HCC-2998 colon = test system: HCC-2998 colon
SK-OV-3 ovarian = test system: SK-OV-3 ovarian
HL-60(TB) leukemia = test system: HL-60(TB) leukemia
SN12C renal = test system: SN12C renal
OVCAR-4 ovarian = test system: OVCAR-4 ovarian
PC-3 prostate = test system: PC-3 prostate

SMILES | GI50 (UACC-62 melanoma) [µM] | TGI (UACC-62 melanoma) | GI50 (U251 CNS) [µM] | TGI (U251 CNS) | GI50 (EKVX NSCLC) [µM] | TGI (EKVX NSCLC) [µM] | GI50 (786-0 renal) [µM] | TGI (786-0 renal) [µM] | GI50 (HCC-2998 colon) [µM] | TGI (HCC-2998 colon) | GI50 (SK-OV-3 ovarian) [µM] | TGI (SK-OV-3 ovarian) [µM] | GI50 (HL-60(TB) leukemia) [µM] | GI50 (SN12C renal) [µM] | TGI (SN12C renal) | GI50 (OVCAR-4 ovarian) [µM] | TGI (OVCAR-4 ovarian) | GI50 (PC-3 prostate) [µM] | TGI (PC-3 prostate) [µM] | TGI (HL-60(TB) leukemia)
COc1ccc2c(c1)/C(=C/c1c(C)nc3sc(C)nn13)C(=O)N2 | 6.24 | > 100 µM | 4.08 | > 100 µM | 8.36 | > 100 | 6.08 | > 100 | 0.632 | 7.86 µM | 3.62 | > 27.5 | 0.663 | 7.2 | > 100 µM | 14.7 | > 100 µM | 2.48 | > 100 | 
Cc1nc2ccccc2c(N)c1-c1cc(C)c2c(C)nc3ccccc3c2n1 | 1.29 | 2.61 µM | 0.288 | 0.959 µM | 1.61 | 3.29 | 1.16 | 2.45 | 0.627 | 1.95 µM | 1.8 | 4.72 | 0.454 | 1.41 | 2.9 µM | 0.831 | 2.4 µM | 1.02 | 3.1 | 
CCC(CO)Nc1nc2ccc(Cl)cc2c2ccccc12 (centres undefined) | 4.71 | 17 µM | 5.18 | 18.3 µM | 6.23 | 20.2 | 7.37 | 20.1 | 2.82 | 10.6 µM | 11.8 | 24.1 | 7.62 | 11.5 | 25.3 µM | 11.9 | 25.5 µM | 10.3 | 24.9 | 63.3 µM
CSc1nc2c(c(=O)[nH]1)N=C1c3ccccc3C(=O)C1C(c1ccccc1)N2 (centres undefined) | 2.14 | > 100 µM | 3.52 | > 100 µM | 12.8 | > 100 | 6.44 | > 100 | 6.75 | > 100 µM | 7.65 | > 100 | 2.51 | 6.39 | > 100 µM | 5.62 | > 100 µM | 3.64 | > 100 | > 100 µM
COC(=O)[C@@H]1[C@H](O)[C@H](C)[C@H](O)[C@@](C)(O)/C=C\C=C(C)C(=O)Nc2c(C)c(OC(C)=O)c3c(c2O)C(=O)C(C)=C2OCOC(=C23)C(C)=C[C@@](C)(O)[C@H](O)[C@@H](C)[C@H]1OC(C)=O | 25.1 | > 100 µM and 66.9 µM and 54.5 µM | > 66.9 | > 100 µM and > 66.9 µM and 62.8 µM | > 66.9 | > 100 |  | > 100 | 11.1 | > 100 µM and 66.9 µM | > 66.9 | > 100 | 11.5 | 49.8 | > 100 µM and 66.9 µM | 63.2 | > 100 µM and 66.9 µM |  | > 66.9 | > 100 µM and 64.6 µM and 39.9 µM
O=C(Nc1ccccc1OC(F)(F)F)Nc1n[nH]c2ccccc12 | 31.7 | > 100 µM | 31.1 | > 100 µM | 48.2 | > 100 | 38.7 | > 100 | 55.9 | > 100 µM | > 100 | > 100 | 17.9 | 72.5 | > 100 µM | 37.7 | > 100 µM | 31.4 | > 100 | > 100 µM
CC/C=C\CCC/C=C1/C(=O)C=C[C@@H]1C/C=C\CCCC(=O)OC | 2.57 | 6.49 µM | 4.22 | 14.5 µM | 4.56 | 15.6 | 3.74 | 11.4 | 2.3 | 4.02 µM | 14.9 | 29.4 | 2.79 | 2.92 | 8.18 µM | 4.27 | 16.4 µM | 3.14 | 8.11 | 7.51 µM
CCCCC(=O)OCC(=O)[C@]1(O)Cc2c(O)c3c(c(O)c2[C@@H](OC2CC(NC(=O)C(F)(F)F)C(O)C(C)O2)C1)C(=O)c1c(OC)cccc1C3=O (some centres undefined) |  | 1.04 µM |  | 2.81 µM |  | 13.5 |  | 1.35 |  | 3.81 µM |  | 1.73 |  |  | 3.91 µM |  | 8.71 µM |  | 16.9 | 6.41 µM
Cc1ccc2c(=O)cc(-c3ccc(F)cc3)[nH]c2n1 |  | > 100 µM | 37.3 | > 100 µM |  | > 100 | 42.2 | > 100 |  | > 100 µM |  | > 100 |  |  | > 100 µM |  | > 100 µM | 20.9 | 88.1 | 34.3 µM
NNC(=O)Nc1cccnc1 |  | > 100 µM |  | > 100 µM |  | > 100 |  | > 100 |  | > 100 µM |  | > 100 |  |  | > 100 µM |  | > 100 µM |  | > 100 | > 100 µM
O=C(CC1(O)C(=O)Nc2c(Cl)cc(Cl)cc21)c1ccc(Br)cc1Br (centres undefined) |  | 25.6 µM |  | 28.5 µM |  | 34.6 |  | 25.5 |  | 30.6 µM |  | 44.2 |  |  | 28.5 µM |  | 29.5 µM |  | 31.4 | 18.1 µM
